Biological target: T1, APOL1 (Homo sapiens, UniProt O14791)
T1 sequence (O14791 1-398): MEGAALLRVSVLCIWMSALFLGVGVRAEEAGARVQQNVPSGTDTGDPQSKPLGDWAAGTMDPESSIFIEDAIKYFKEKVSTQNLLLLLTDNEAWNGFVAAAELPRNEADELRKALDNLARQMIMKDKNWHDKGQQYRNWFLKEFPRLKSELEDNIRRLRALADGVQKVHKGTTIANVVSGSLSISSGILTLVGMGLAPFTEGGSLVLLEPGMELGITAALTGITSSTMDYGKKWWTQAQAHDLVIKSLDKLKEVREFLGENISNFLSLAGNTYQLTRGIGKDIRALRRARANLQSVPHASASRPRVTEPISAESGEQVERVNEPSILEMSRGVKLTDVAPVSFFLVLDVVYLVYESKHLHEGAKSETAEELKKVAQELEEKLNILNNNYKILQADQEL
Assay: MultiTox-Fluor Multiplex Cytotoxicity Assay, tet-inducible APOL1 T-REx-HEK293 cells (G0, G1 or G2 clone not specified for Table 20)
Format: cell-based
Details: tet-induced, 24 hours with compound, ratio of dead to live cells, read-out: IP50 (i.e., IC50 for cell proliferation)
Method: Human embryonic kidney (HEK293) cell lines containing a tet-inducible expression system (T-REx™; Invitrogen, Carlsbad, CA) and Adeno-associated virus site 1 pAAVS1-Puro-APOL1 G0 or pAAVS1-Puro-APOL1 G1 or pAAVS1-Puro-APOL1 G2 Clones G0 DC2.13, G1 DC3.25, and G2 DC4.44 were grown in a T-225 flask at ˜90% confluency in cell growth media (DMEM, 10% Tet-free FBS, 2 mM L-glutamine, 100 Units/mL penicillin-streptomycin, 5 μg/mL blasticidin S HCl, 1 μg/mL puromycin dihydrochloride). Cells were washed with DPBS and then trypsinized to dissociate from the flask. Media was used to quench the trypsin, cells were then pelleted at 200 g and resuspended in fresh cell assay media (DMEM, 2% Tet-free FBS, 2 mM L-glutamine, 100 Units/mL penicillin-streptomycin). Cells were counted and diluted to 1.17×10^6 cells/mL. 20 μL of cells (23,400/well) were dispensed in every well of a 384-well Poly-D-Lysine coated plate using the Multidrop dispenser. The plates were then incubated at room temperature for one hour.
Tetracycline is needed to induce APOL1 expression. 1 mg/mL tet stock in water was diluted to 250 ng/mL (5×) in cell assay media. 60 μL of cell assay media (no tet control) was dispensed in columns 1 and 24, and 60 μL of 5× tet in 384-PP-round bottom plate was dispensed in columns 2 to 23 with the Multidrop dispenser.
Assay ready plates from the Global Compound Archive were ordered using template 384_APOL1Cell_DR10n2_50 uM_v3. Compounds were dispensed at 200 nL in DMSO. The final top concentration was 10 μM with a 10 point 3-fold dilution in duplicate in the MultiTox assay.
20 μL was transferred from the 5× tet plate to the ARP and mixed, then 5 μL of 5× tet and the compounds were transferred to the cell plate and mixed using the Bravo. The cell plate was placed in the humidified 37° C. 5% CO2 incubator for 24 hours.
The MultiTox-Fluor Multiplex Cytotoxicity Assay was performed in accordance with the manufacturer's protocol. After cells were incubated with tet and compound for 24 hours, 25 μL of 1× MultiTox reagent was added to each well using the Multidrop dispenser; the plates were placed on a plate shaker (600 rpm) for 2 minutes, then centrifuged briefly and placed back in the 37° C. incubator for 30 minutes. The cell viability (excitation: 400 nm, emission: 486 nm) and cytotoxicity (excitation: 485 nm, emission: 535 nm) were read using the EnVision plate reader. A ratio of dead (cytotoxicity) to live (viability) cells was reported. Data was exported and analyzed in Genedata. Data was normalized using percent of control, no tet (100% viability), and 50 ng/mL tet treated (0% viability), and fit using Smart Fit settings in Genedata.

| Compound | IC50 [nM] |
| --- | --- |
| C[C@H]1C[C@@]2(CCN1Cc1cnn(C)c1)OCCc1ccc(Cl)cc12 [Compound 111] | ≤ 50 |
| Cc1ncc(CN2CC[C@]3(C[C@@H]2C)OCCc2ccc(Cl)cc23)cn1 [Compound 112] | ≤ 50 |
| C[C@H]1C[C@@]2(CCN1Cc1cnn3c1CCC3)OCCc1ccc(Cl)cc12 [Compound 113] | ≥ 500 |
| C[C@H]1C[C@@]2(CCN1Cc1cccnc1)OCCc1ccc(Cl)cc12 [Compound 114] | ≤ 50 |
| C[C@H]1C[C@@]2(CCN1Cc1cnn(CC(C)(CO)CO)c1)OCCc1ccc(Cl)cc12 [Compound 115] | ≤ 50 |
| C[C@H]1C[C@@]2(CCN1Cc1cnn(C3CCS(=O)(=O)C3)c1)OCCc1ccc(Cl)cc12 (some centres unmarked) [Compound 116] | ≤ 50 |
| C[C@H]1C[C@@]2(CCN1Cc1cnn(-c3ccccn3)c1)OCCc1ccc(Cl)cc12 [Compound 117] | ≤ 50 |
| C[C@H]1C[C@@]2(CCN1Cc1ccncc1)OCCc1ccc(Cl)cc12 [Compound 118] | ≤ 50 |
| C[C@H]1C[C@@]2(CCN1Cc1cncnc1)OCCc1ccc(Cl)cc12 [Compound 119] | ≤ 50 |
| C[C@H]1C[C@@]2(CCN1Cc1cnn(C(C)(C)C)c1)OCCc1ccc(Cl)cc12 [Compound 120] | 50 to 500 |
| CCn1cc(CN2CC[C@]3(C[C@@H]2C)OCCc2ccc(Cl)cc23)cn1 [Compound 121] | ≤ 50 |
| C[C@H]1C[C@@]2(CCN1Cc1cnn(C(F)F)c1)OCCc1ccc(Cl)cc12 [Compound 122] | ≤ 50 |
| C[C@H]1C[C@@]2(CCN1Cc1cnc(N)nc1)OCCc1ccc(Cl)cc12 [Compound 123] | ≤ 50 |
| C[C@H]1C[C@@]2(CCN1Cc1cnn(C[C@@H](O)C(C)(C)O)c1)OCCc1ccc(Cl)cc12 [Compound 124] | ≤ 50 |
| C[C@H]1C[C@@]2(CCN1Cc1cnn(C[C@H](O)C(C)(C)O)c1)OCCc1ccc(Cl)cc12 [Compound 125] | ≤ 50 |
| CNS(=O)(=O)CCn1cc(CN2CC[C@]3(C[C@@H]2C)OCCc2ccc(Cl)cc23)cn1 [Compound 126] | ≤ 50 |
| Cn1cc(CN2CCC3(CC2)OCCc2ccccc23)cn1 [Compound 127] | ≥ 500 |
| Cn1cc(CN2CCC3(CC2)OCCc2ccc(C(F)(F)F)cc23)cn1 [Compound 128] | ≥ 500 |
| CS(=O)(=O)CCn1cc(CN2CCC3(CC2)OCCc2ccc(Cl)cc23)nn1 [Compound 129] | ≥ 500 |

| Compound | IC50 [nM] |
| --- | --- |
| CS(=O)(=O)CCn1cc(CN2CCC3(CC2)OCC(O)c2ccc(Cl)cc23)cn1 (centres unmarked) [Compound 130] | 50 to 500 |
| C[C@H]1C[C@@]2(CCN1Cc1cnn(C)c1)OCC(O)c1ccc(Cl)cc12 (some centres unmarked) [Compound 131] | ≤ 50 |
| C[C@H]1C[C@@]2(CCN1Cc1cnn(CCS(C)(=O)=O)c1)OC[C@H](O)c1ccc(Cl)cc12 [Compound 132] | ≤ 50 |
| C[C@H]1C[C@@]2(CCN1Cc1cnn(CCS(C)(=O)=O)c1)OC[C@@H](O)c1ccc(Cl)cc12 [Compound 133] | ≤ 50 |
| C[C@H]1C[C@@]2(CCN1Cc1cnn(C)c1)OCC(O)c1ccc(Cl)cc12 (some centres unmarked) [Compound 134] | ≤ 50 |
| C[C@H]1C[C@@]2(CCN1Cc1cnn(CCS(C)(=O)=O)c1)OCC(F)(F)c1ccc(Cl)cc12 [Compound 135] | ≤ 50 |
| Cc1ccc2c(c1)C1(CCN(Cc3ccccc3)C(C)C1)OCC2 (centres unmarked) [Compound 136] | 50 to 500 |
| Cc1ccc2c(c1)C1(CCN(Cc3ccccc3)C(C)C1)OCC2 (centres unmarked) [Compound 137] | ≥ 500 |
| C[C@H]1C[C@@]2(CCN1Cc1ccccn1)OCCc1ccc(Cl)cc12 [Compound 138] | ≥ 500 |
| CC1CN(Cc2cnn(C)c2)CCC12OCCc1ccc(Cl)cc12 (centres unmarked) [Compound 140, 7-chloro-3′-methyl-1′-[(1-methylpyrazol-4-yl)methyl]spiro[isochromane-1,4′-piperidine]] | ≥ 500 |
| C[C@H]1C[C@@]2(CCN1Cc1cn(CCO)nn1)OCCc1ccc(Cl)cc12 [Compound 141, 2-[4-[[(1R,2′S)-7-chloro-2′-methyl-spiro[isochromane-1,4′-piperidine]-1′-yl]methyl]triazol-1-yl]ethanol] | ≤ 50 |
| C[C@H]1C[C@@]2(CCN1Cc1cn(Cc3ccnc(CO)c3)nn1)OCCc1ccc(Cl)cc12 [Compound 142, (4-((4-(((1R,2′S)-7-chloro-2′-methylspiro[isochromane-1,4′-piperidin]-1′-yl)methyl)-1H-1,2,3-triazol-1-yl)methyl)pyridin-2-yl)methanol] | 50 to 500 |
| C[C@H]1C[C@@]2(CCN1Cc1cn(CC(O)C(C)(C)O)nn1)OCCc1ccc(Cl)cc12 (some centres unmarked) [Compound 143] | ≤ 50 |
| CC(O)Cn1cc(CN2CC[C@]3(C[C@@H]2C)OCCc2ccc(Cl)cc23)nn1 (some centres unmarked) [Compound 144] | ≤ 50 |
| C[C@H]1C[C@@]2(CCN1Cc1cn(CC3CC(=O)N(C)C3)nn1)OCCc1ccc(Cl)cc12 (some centres unmarked) [Compound 145] | 50 to 500 |
| C[C@H]1C[C@@]2(CCN1Cc1cn(C3CC(=O)N(C)C3)nn1)OCCc1ccc(Cl)cc12 (some centres unmarked) [Compound 146] | ≤ 50 |
| C[C@H]1C[C@@]2(CCN1Cc1cn(CCCO)nn1)OCCc1ccc(Cl)cc12 [Compound 147] | ≤ 50 |
| C[C@H]1C[C@@]2(CCN1Cc1cn(CC3(CO)CC3)nn1)OCCc1ccc(Cl)cc12 [Compound 148] | ≤ 50 |
| C[C@H]1C[C@@]2(CCN1Cc1cn(CC3(O)CCOC3)nn1)OCCc1ccc(Cl)cc12 (some centres unmarked) [Compound 149] | ≤ 50 |

| Compound | IC50 [nM] |
| --- | --- |
| C[C@H]1C[C@@]2(CCN1Cc1cn(C3CN(S(C)(=O)=O)C3)nn1)OCCc1ccc(Cl)cc12 [Compound 150] | ≤ 50 |
| C[C@H]1C[C@@]2(CCN1Cc1cn(C(CO)CO)nn1)OCCc1ccc(Cl)cc12 [Compound 151] | ≥ 500 |
| C[C@H]1C[C@@]2(CCN1Cc1cn(CC(O)CO)nn1)OCCc1ccc(Cl)cc12 (some centres unmarked) [Compound 152] | ≤ 50 |
| C[C@H]1C[C@@]2(CCN1Cc1cn(C(C)(CO)CO)nn1)OCCc1ccc(Cl)cc12 [Compound 153] | ≥ 500 |
| CCn1cc(CN2CC[C@]3(C[C@@H]2C)OCCc2ccc(Cl)cc23)nn1 [Compound 154] | 50 to 500 |
| COCn1cc(CN2CC[C@]3(C[C@@H]2C)OCCc2ccc(Cl)cc23)nn1 [Compound 155] | 50 to 500 |
| C[C@H]1C[C@@]2(CCN1Cc1cn(CC(O)C(C)(C)O)nn1)OCCc1ccc(Cl)cc12 (some centres unmarked) [Compound 156] | ≤ 50 |
| C[C@H]1C[C@@]2(CCN1Cc1cn(CC(O)C(C)(C)O)nn1)OCCc1ccc(Cl)cc12 (some centres unmarked) [Compound 157] | ≤ 50 |
| C[C@H]1C[C@@]2(CCN1Cc1cn(CC(C)(C)CS(N)(=O)=O)nn1)OCCc1ccc(Cl)cc12 [Compound 158] | ≤ 50 |
| Cc1ccc(NCCn2cc(CN3CC[C@]4(C[C@@H]3C)OCCc3ccc(Cl)cc34)nn2)nn1 [Compound 159] | 50 to 500 |
| C[C@H]1C[C@@]2(CCN1Cc1cn(CCCc3nc(=O)[nH][nH]3)nn1)OCCc1ccc(Cl)cc12 [Compound 160] | 50 to 500 |
| CCc1nnc(Cn2cc(CN3CC[C@]4(C[C@@H]3C)OCCc3ccc(Cl)cc34)nn2)o1 [Compound 161] | ≤ 50 |
| CNc1cnc(Cn2cc(CN3CC[C@]4(C[C@@H]3C)OCCc3ccc(Cl)cc34)nn2)cn1 [Compound 162] | 50 to 500 |
| C[C@H]1C[C@@]2(CCN1Cc1cn(Cc3cc(=O)[nH]c(C4CC4)n3)nn1)OCCc1ccc(Cl)cc12 [Compound 163] | 50 to 500 |
| C[C@H]1C[C@@]2(CCN1Cc1cn(Cc3nc(CO)cs3)nn1)OCCc1ccc(Cl)cc12 [Compound 164] | 50 to 500 |
| Cc1nc(Cn2cc(CN3CC[C@]4(C[C@@H]3C)OCCc3ccc(Cl)cc34)nn2)sc1C(N)=O [Compound 165] | ≤ 50 |
| C[C@H]1C[C@@]2(CCN1Cc1cn(Cc3cnn4c3C(=O)N(C)CC4)nn1)OCCc1ccc(Cl)cc12 [Compound 166] | 50 to 500 |
| C[C@H]1C[C@@]2(CCN1Cc1cn(CC(C)(C)NS(C)(=O)=O)nn1)OCCc1ccc(Cl)cc12 [Compound 167] | ≤ 50 |

— patent US20250195483A1, “SPIRO PIPERIDINE DERIVATIVES AS INHIBITORS OF APOL1 AND METHODS OF USING SAME” (Vertex Pharmaceuticals Incorporated, priority 2022, published 2025)
